The text below walks through data of paper PMC7933930, “Development of a small molecule that corrects misfolding and increases secretion of Z α1‐antitrypsin” (EMBO Molecular Medicine, 2021).

What is called pEC50 is the negative decadic logarithm of the EC50, by convention in mol/L. A lower pEC50 goes with a large EC50.

pEC50, pIC50: −log10 of the molar value.

The target in one assay is NK1 (TACR1) (Homo sapiens, UniProt P25103). In words: Off‐target panel: NK1 (TACR1). To be noted: Antagonist, read-out: Mean (PXC50). Format: cell-based. The method, then:
(§1) GSK716 selectivity and PK properties were profiled in order to investigate the suitability of GSK716 for progression into in vivo studies and the potential for taking it forward as a clinical candidate for testing in humans. Since GSK716 results in loss of inhibitory activity of α1‐antitrypsin, the effect of the compound was assessed on other closely related serpins. […] Furthermore, there were no off‐target effects in a panel of assays considered predictive of known safety liabilities that precluded further development of GSK716 (Table EV1).

The target in another assay is T1, Serotonin 5HT2C (Homo sapiens, UniProt P28335).
T1 sequence (P28335 33-458): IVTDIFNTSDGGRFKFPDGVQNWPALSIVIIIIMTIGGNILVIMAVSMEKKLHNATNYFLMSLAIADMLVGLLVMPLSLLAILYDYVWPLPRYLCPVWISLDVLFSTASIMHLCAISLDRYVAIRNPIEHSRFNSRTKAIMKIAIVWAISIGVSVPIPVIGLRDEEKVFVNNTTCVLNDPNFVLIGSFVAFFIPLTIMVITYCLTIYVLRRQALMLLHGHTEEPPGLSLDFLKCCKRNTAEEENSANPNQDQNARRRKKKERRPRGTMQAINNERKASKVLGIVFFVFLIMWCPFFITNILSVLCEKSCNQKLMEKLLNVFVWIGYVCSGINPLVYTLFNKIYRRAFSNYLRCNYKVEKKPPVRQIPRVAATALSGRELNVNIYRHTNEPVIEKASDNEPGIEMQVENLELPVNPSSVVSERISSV
The assay is described as follows: Off‐target panel: Serotonin 5HT2C. Format: cell-based. The method, then:
as §1

The target of a further assay is α1‐antichymotrypsin (Homo sapiens, UniProt P01011). In words: Inhibitory activity of α1‐antichymotrypsin against chymotrypsin. It counts as biochemical. The method, then:
Figure 5 The effect of GSK716 on serpin inhibitory activity • α1‐Antitrypsin was incubated at varying molar ratios with the model protease bovine α‐chymotrypsin, and the residual protease activity determined. The intercept of the regression with the abscissa reflects the number of molecules of α1‐antitrypsin required to inhibit one molecule of chymotrypsin in the presence (+c) and absence (−c) of 50µM GSK716. Error bars reflect ± SEM of three independent experiments. • M α1‐antitrypsin was incubated with different molar ratios of chymotrypsin and resolved by SDS–PAGE. The position of covalent α1‐antitrypsin‐chymotrypsin complex (cpx), native (nat) and cleaved (clv) is shown. • The inhibitory activity of α1‐antichymotrypsin against chymotrypsin (ach + chym), neuroserpin against trypsin (neus + tryp), and antithrombin against thrombin (atiii + thrombin) was determined in the presence and absence of GSK716. Error bars reflect ± SD of two independent experiments.
GSK716 selectivity and PK properties were profiled in order to investigate the suitability of GSK716 for progression into in vivo studies and the potential for taking it forward as a clinical candidate for testing in humans. Since GSK716 results in loss of inhibitory activity of α1‐antitrypsin, the effect of the compound was assessed on other closely related serpins. […]

Chain of α1‐antichymotrypsin (P01011 24-423, species assumed): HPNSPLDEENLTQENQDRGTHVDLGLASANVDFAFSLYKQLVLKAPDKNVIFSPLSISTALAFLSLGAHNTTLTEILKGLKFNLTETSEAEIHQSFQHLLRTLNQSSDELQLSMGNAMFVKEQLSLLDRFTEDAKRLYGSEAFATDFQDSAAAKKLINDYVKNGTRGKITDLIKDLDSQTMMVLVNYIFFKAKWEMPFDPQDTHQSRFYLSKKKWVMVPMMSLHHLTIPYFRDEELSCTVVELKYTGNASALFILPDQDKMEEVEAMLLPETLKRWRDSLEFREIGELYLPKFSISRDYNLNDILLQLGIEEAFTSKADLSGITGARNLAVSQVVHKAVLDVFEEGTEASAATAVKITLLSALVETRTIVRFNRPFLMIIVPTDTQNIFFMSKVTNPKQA
Chain of NK1 (TACR1) (P25103 whole entry, species assumed): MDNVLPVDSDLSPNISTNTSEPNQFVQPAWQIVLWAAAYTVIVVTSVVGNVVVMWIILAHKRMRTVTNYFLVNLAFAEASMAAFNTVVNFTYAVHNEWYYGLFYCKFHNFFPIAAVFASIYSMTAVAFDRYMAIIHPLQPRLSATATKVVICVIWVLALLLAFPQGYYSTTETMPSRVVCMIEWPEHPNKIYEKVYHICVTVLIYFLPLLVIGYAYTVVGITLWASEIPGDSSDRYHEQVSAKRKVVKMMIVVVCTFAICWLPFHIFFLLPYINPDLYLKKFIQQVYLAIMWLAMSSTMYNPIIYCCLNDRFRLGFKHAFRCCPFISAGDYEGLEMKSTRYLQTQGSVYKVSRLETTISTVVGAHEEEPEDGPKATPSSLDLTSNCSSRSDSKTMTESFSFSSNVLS

As to `CCC[C@@H](NC(=O)c1cccc2c1CC(=O)N2)[C@@H](O)c1cccc(F)c1C` [GSK716], the pIC50 at NK1 (TACR1) is below 4.60. At Serotonin 5HT2C, this compound had a negative-log EC50 (pEC50) below 4.60 and a pIC50 below 4.60. Also, the “inhibitory activity of α1‐antichymotrypsin towards its cognate protease” value against α1‐antichymotrypsin was “did not affect”.
